Data on one compound can be found in BindingDB's records for PubMed 34225181 (University of Electronic Science and Technology of China, 2021).

The test in a line: Inhibition of L1 (unknown origin) using cefazolin as substrate incubated for 5 mins by Agilent UV8453 spectrometric analysis.

For orientation: IC50 means the concentration that inhibits the measured activity by half. High values mean a need for much substance, low ones inhibition by little substance. `O=C(NNC(=S)S)c1ccccc1O` returned an IC50 of 380 nM. That is a sub-micromolar value.
